In patent US5034391A, “Piperazinylalkyl-3(2H)-pyridazinones and the use thereof as agents lowering blood pressure” (CL Pharma Aktiengesellschaft, priority 1988, dated 1991):

How the values were obtained:
[1] = Solubility of the isolated salt in water (remark in the preparation examples); type: physicochemical; conditions: hydrochloride / dihydrochloride salt
[2] = target: T1, alpha1 adrenoceptors (Rattus norvegicus, UniProt P15823); assay: Affinity for alpha1 adrenoceptors: displacement of tritiated prazosin on rat cardiac membranes; type: binding; conditions: Ki from IC50 by Cheng and Prusoff, read-out: Inhibition constants at alpha-1-adrenoceptor (Ki)
T1 construct: from tissue; host or cells: rat cardiac membranes
T1 sequence (P15823 1-515): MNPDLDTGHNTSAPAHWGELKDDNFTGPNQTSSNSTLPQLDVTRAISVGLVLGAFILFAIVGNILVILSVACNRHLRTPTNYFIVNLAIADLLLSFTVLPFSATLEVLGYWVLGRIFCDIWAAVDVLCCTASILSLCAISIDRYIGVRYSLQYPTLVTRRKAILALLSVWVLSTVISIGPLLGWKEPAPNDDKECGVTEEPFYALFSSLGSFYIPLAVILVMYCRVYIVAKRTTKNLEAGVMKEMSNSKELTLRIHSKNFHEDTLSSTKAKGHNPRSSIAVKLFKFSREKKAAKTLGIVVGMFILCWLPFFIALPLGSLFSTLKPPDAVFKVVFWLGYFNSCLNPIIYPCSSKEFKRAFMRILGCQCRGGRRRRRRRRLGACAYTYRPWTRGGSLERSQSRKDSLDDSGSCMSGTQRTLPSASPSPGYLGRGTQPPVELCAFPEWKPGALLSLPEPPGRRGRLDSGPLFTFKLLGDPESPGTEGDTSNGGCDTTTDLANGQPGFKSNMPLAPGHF
Description: The affinity of compounds of the general formula I for alpha1 adrenoceptors was established using the method described by R. S. Williams, D. F. Dukes and […] in J. Cardiovasc. Pharmacol. 3, 522-531 (1981). In this method the competitive displacement of tritiated prazosin (2-(4-(2-furoyl)-1-piperazinyl)-4-amino-6,7-dimethoxy-quinazoline) on rat-cardiac membranes by the test substances is measured, and the IC50 (50% inhibition concentration) is determined as that concentration which brings about a 50% inhibition of the specific binding of tritiated prazosin to the alpha1 adrenoceptors in rat cardiac membranes.
The concentration-independent inhibitor constants K1 -alpha1 were determined from the IC50 values as stated by Y. Cheng and H. W.Prusoff in Biochem. Pharmacol. 22, 3099-3108 (1973).

[3] = target: T2, 5-HT-1A receptors (Rattus norvegicus, UniProt P19327); assay: Affinity for 5-HT-1A receptors: displacement of tritiated 8-OH-DPAT on rat brain membranes; type: binding; conditions: Ki from IC50 by Cheng and Prusoff, read-out: Inhibition constants at 5-HT1A-receptor (Ki)
T2 construct: 5-HT-1A receptors in rat brain membranes; from tissue; host or cells: rat brain membranes
T2 sequence (P19327 1-422): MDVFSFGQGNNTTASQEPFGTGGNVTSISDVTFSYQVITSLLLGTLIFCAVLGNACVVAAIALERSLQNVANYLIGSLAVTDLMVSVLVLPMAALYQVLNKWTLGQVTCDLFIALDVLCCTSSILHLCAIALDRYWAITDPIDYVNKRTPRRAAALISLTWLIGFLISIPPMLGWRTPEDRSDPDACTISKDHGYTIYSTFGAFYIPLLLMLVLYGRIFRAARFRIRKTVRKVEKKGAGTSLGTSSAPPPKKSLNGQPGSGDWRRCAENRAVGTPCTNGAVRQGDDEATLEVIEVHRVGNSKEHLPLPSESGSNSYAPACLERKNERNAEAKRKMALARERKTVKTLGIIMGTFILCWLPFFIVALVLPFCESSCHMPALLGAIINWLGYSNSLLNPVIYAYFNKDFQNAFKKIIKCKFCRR
Description: The affinity of compounds of the general formula I for 5-HT-1A receptors was determined by the method described by H. Gozlan, S. Elmestikawy, L. Pichat, J. Glowinski and M. Hamon in Nature 305, 140-142 (1983). In this method the competitive displacement of tritiated 8-OH-DPAT (8-hydroxy-(di-n-propylamino)tetralin) on rat brain membranes by the test substances is measured, and the IC50 (50% inhibition concentration) is determined as that concentration which brings about a 50% inhibition of the specific binding of tritiated 8-OH-DPAT to 5-HT-1A receptors in rat brain membranes.
The concentration-independent inhibitor constants K1 -alpha1 and K1 -5HT-1A were determined from the IC50 values as stated by Y. Cheng and H. W. Prusoff in Biochem. Pharmacol. 22, 3099-3108 (1973).

SMILES	solubility in water [1]	Ki [2] [µM]	Ki [3] [µM]
CC(C)(C)n1ncc(NCCN2CCN(c3cccc(C(F)(F)F)c3)CC2)c(Cl)c1=O	readily soluble in water		
CC(C)(C)n1ncc(Cl)c(NCCN2CCN(c3cccc(C(F)(F)F)c3)CC2)c1=O	readily soluble in water		
COc1cc(C)ccc1N1CCN(CCNc2cnn(C)c(=O)c2Cl)CC1 [2-Methyl-4-chloro-5-((2-(4-(2-methoxy-4-methylphenyl)piperazinyl-1)ethyl)amino)-3(2H)-pyridazinone]		0.0314	0.478
COc1ccc(C)cc1N1CCN(CCNc2cnn(C)c(=O)c2Cl)CC1 [2-Methyl-4-chloro-5-((2-(4-(2-methoxy-5-methylphenyl)piperazinyl-1)ethyl)amino)-3(2H)-pyridazinone]		0.00698	0.51
Cn1ncc(NCCN2CCN(c3cccc(C(F)(F)F)c3)CC2)c(Cl)c1=O [2-Methyl-4-chloro-5-((2-(4-(3-trifluoromethylphenyl)piperazinyl-1)ethyl)amino-3(2H)-pyridazinone]		0.0942	0.0285
Cn1ncc(NCCN2CCN(c3ccccc3)CC2)c(Cl)c1=O [2-Methyl-4-chloro-5-((2-(4-phenylpiperazinyl-1)ethyl)amino)-3(2H)-pyridazinone]		0.00405	0.106
COc1ccccc1N1CCN(CCCNc2cnn(C)c(=O)c2Cl)CC1 [2-Methyl-4-chloro-5-((3-(4-(2-methoxyphenyl)-1-piperazinyl)propyl)amino)-3(2H)-pyridazinone]		0.0322	0.0507
COc1cc(C)ccc1N1CCN(CCNc2cnn(C)c(=O)c2)CC1 [2-Methyl-5-((2-(4-(2-methoxy-4-methylphenyl)piperazinyl-1)ethyl)amino)-3(2H)-pyridazinone]		0.207	0.814
COc1ccc(C)cc1N1CCN(CCNc2cnn(C)c(=O)c2)CC1 [2-Methyl-5-((2-(4-(2-methoxy-5-methylphenyl)piperazinyl-1)ethyl)amino)-3(2H)-pyridazinone]		0.0826	0.523
COc1ccccc1N1CCN(CCNc2cnn(C)c(=O)c2)CC1 [2-Methyl-5-((2-(4-(2-methoxyphenyl)-1-piperazinyl)ethyl)amino)-3(2H)-pyridazinone]		0.19	0.0436
Cn1ncc(NCCN2CCN(c3ccccc3)CC2)cc1=O [2-Methyl-5-((2-(4-phenylpiperazinyl-1)ethyl)amino)-3(2H)-pyridazinone]		0.157	0.274
CCN(CCN1CCN(c2ccccc2OC)CC1)c1cnn(C)c(=O)c1 [2-Methyl-5-(ethyl-(2-(4-(2-methoxyphenyl)piperazinyl-1)ethyl)amino)-3(2H)-pyridazinone]		0.0206	0.0242
COc1ccccc1N1CCN(CCNc2c(Br)cnn(C)c2=O)CC1 [2-Methyl-5-bromo-4-((2-(4-(2-methoxyphenyl)-1-piperazinyl)ethyl)amino)-3(2H)-pyridazinone]		0.00133	0.0162
Cn1ncc(Cl)c(NCCN2CCN(c3ccccc3F)CC2)c1=O [2-Methyl-5-chloro-4-((2-(4-(2-fluorophenyl)piperazinyl-1)ethyl)amino-3(2H)-pyridazinone]		0.00251	0.0808
COc1cc(C)ccc1N1CCN(CCNc2c(Cl)cnn(C)c2=O)CC1 [2-Methyl-5-chloro-4-((2-(4-(2-methoxy-4-methylphenyl)piperazinyl-1)ethyl)amino)-3(2H)-pyridazinone]		0.0224	0.126
COc1ccc(C)cc1N1CCN(CCNc2c(Cl)cnn(C)c2=O)CC1 [2-Methyl-5-chloro-4-((2-(4-(2-methoxy-5-methylphenyl)piperazinyl-1)ethyl)amino)-3(2H)-pyridazinone]		0.00601	0.0851

SMILES	solubility in water [1]	Ki [2] [µM]	Ki [3] [µM]
COc1ccccc1N1CCN(CCNc2c(Cl)cnn(C)c2=O)CC1 [2-Methyl-5-chloro-4-((2-(4-(2-methoxyphenyl)-1-piperazinyl)ethyl)amino)-3(2H)-pyridazinone]		0.0015	0.0166
Cn1ncc(Cl)c(NCCN2CCN(c3cccc(C(F)(F)F)c3)CC2)c1=O [2-Methyl-5-chloro-4-((2-(4-(3-trifluoromethylphenyl)piperazinyl-1)ethyl)amino-3(2H)-pyridazinone]		0.0473	0.00831
Cn1ncc(Cl)c(NCCN2CCN(c3ccccc3)CC2)c1=O [2-Methyl-5-chloro-4-((2-(4-phenylpiperazinyl-1)ethyl)amino)-3(2H)-pyridazinone]		0.0867	0.519
COc1ccccc1N1CCN(CCNc2cc(Cl)nn(C)c2=O)CC1 [2-Methyl-6-chloro-4-((2-(4-(2-methoxyphenyl)piperazinyl-1)ethyl)amino)-3(2H)-pyridazinone]		0.00563	0.0284
COc1ccccc1N1CCN(CCCNc2cc(Cl)nn(C)c2=O)CC1 [2-Methyl-6-chloro-4-((3-(4-(2-methoxyphenyl)-1-piperazinyl)propyl)amino)-3(2H)-pyridazinone]		0.011	0.0466
COc1ccccc1N1CCN(CCNc2cnn(-c3ccccc3)c(=O)c2Cl)CC1 [2-Phenyl-4-chloro-5-((2-(4-(2-methoxyphenyl)piperazinyl-1)ethyl)amino)-3(2H)-pyridazinone]		0.00448	0.0758
COc1ccccc1N1CCN(CCNc2cnn(C)c(=O)c2Br)CC1 [2-methyl-4-bromo-5-((2-(4-(2-methoxyphenyl)-1-piperazinyl)ethyl)amino)-3(2H)-pyridazinone]		0.00588	0.0336
COc1ccccc1N1CCN(CCNc2cnn(C)c(=O)c2Cl)CC1 [2-methyl-4-chloro-5-((2-(4-(2-methoxyphenyl)-1-piperazinyl)ethyl)amino)-3(2H)-pyridazinone]		0.00757	0.0632
COc1ccccc1N1CCN(CCCNc2c(Cl)cnn(C)c2=O)CC1 [2-methyl-5-chloro-4-((3-(4-(2-methoxyphenyl)-1-piperazinyl)propyl)amino)-3(2H)-pyridazinone]		0.00348	0.0014
COc1ccccc1N1CCN(CCNc2cnn(C(C)(C)C)c(=O)c2Cl)CC1 [2-t-Butyl-4-chloro-5-((2-(4-(2-methoxyphenyl)piperazinyl-1)ethyl)amino)-3(2H)-pyridazinone]		0.0128	0.0394
COc1ccccc1N1CCN(CCNc2cnn(C(C)(C)C)c(=O)c2)CC1 [2-t-Butyl-5-((2-(4-(2-methoxyphenyl)piperazinyl-1)ethyl)amino)-3(2H)-pyridazinone]		0.00603	0.0658
COc1ccccc1N1CCN(CCNc2c(Cl)cnn(C(C)(C)C)c2=O)CC1 [2-t-Butyl-5-chloro-4-((2-(4-(2-methoxyphenyl)piperazinyl-1)ethyl)amino)-3(2H)-pyridazinone]		0.0422	0.00945
COc1ccccc1N1CCN(CCNc2cn[nH]c(=O)c2Cl)CC1 [4-Chloro-5-((2-(4-(2-methoxyphenyl)-1-piperazinyl)ethyl)amino)-3(2H)-pyridazinone]		0.00543	0.027
COc1ccccc1N1CCN(CCNc2c(OC)cnn(C)c2=O)CC1 [5-Methoxy-2-methyl-4-((2-(4-(2-methoxyphenyl)-1-piperazinyl)ethyl)amino)-3(2H)-pyridazinone]		0.00783	0.0908
COc1ccccc1N1CCN(CCCNc2cc(=O)n(C)c(=O)n2C)CC1 [URAPIDIL, reference compound]		0.11	0.0931
